The structures appear in SMILES notation. Where two headings read alike, the source gives them in different places.

One experiment addresses T1, WT PNP/Pi complex (Escherichia coli, UniProt P0ABP8).
T1 construct: made in house
Briefly: Calorimetric (ITC) titrations with formycin A. Set-up: species or system E. coli. Here is the method: (§1) The isothermal titration experiments were performed on the MicroCal iTC200 (Malvern) microcalorimeter. […] All experiments were carried out at 25°C. For the WT protein series of three calorimetric titrations, with protein concentration in the range of 70 to 800 μM, for the Y160W mutant series of four titration with protein concentration in the range of 300 μM to 1.3 mM were performed. Samples of each protein used for these series came from a single preparation. Ligand samples were 8–12 times more concentrated than the protein sample, in order to achieve a diverse ligand/protein molar ratio during titration and thus better explore binding curves. In some ITC experiments, in order to sample the lower plateau region more accurately, several initial points were measured with less ligand volume added at each step than used in the subsequent titration points measurements. An example of the ITC data is shown in the Supplementary Information (Figure S6). Raw thermograms were analysed with NITPIC[43]. Global analysis of titration curves was performed with Sedphat[20],[21].
(§2) Three models were taken into account in analysis of binding curves: model with one (first equation below), two (first two equations) and three binding sites. P+L⇔PLwithKd1PL+L⇔PLLwithKd2PLL+L⇔PLLLwithKd3
(§3) The model with one binding site is based on the assumption that all monomers are equivalent, and there is no cooperation between them. In the model with two binding sites the basic functional unit of the protein is a dimer, possible non-equivalence of binding sites or cooperativity between active sites in the dimer are taken into account (in the case of no cooperativity dissociation constants should be related statistically: Kd2 = 4Kd1), the dimers within hexamer are equivalent. The model with three binding sites is based on the crystallographic structures of binary and ternary complexes of PNP with ligands, where two of the dimers are in the “open-closed” conformation, but the third dimer is symmetrical, in the “open-open” conformation. Thus, active sites in the open conformation belonging to “open-closed” and “open-open” dimer may not be equivalent. This model takes into account possibility of cooperation between all monomers within a hexameric molecule of the protein (in the case of no cooperativity dissociation constants should be related statistically: Kd3 = 9Kd1, Kd2 = 3Kd1).
(§4) Titration series were analysed globally, always starting from the simplest, one-binding-site model. […] For all tested models the Akaike information criterion[23] was also calculated. Generally both criteria used in the discrimination analysis were pointing the same model as best describing the data. The only exception was thermophoretic titration of the WT protein with formycin A, and it is described in details in the Results. Analysed models were fitted to the raw data, whereas graphs presented in this study were prepared from the normalised data and the fitted curves. The parameters of the fit are dissociation constants and responses of the system. Responses are defined as changes in a measured physical quantity related to the formation of subsequent protein–ligand complexes: intrinsic protein fluorescence intensity, fluorescence intensity of the dye, heat and ellipticity for fluorimetric, thermophoretic, calorimetric and CD titrations, respectively. Responses are normalised for the protein concentration present in the titration, thus giving molar coefficients.

The next experiment deals with T2, Y160W mutant/Pi complex (Escherichia coli, UniProt P0ABP8, Y161W).
T2 construct: made in house; host or cells: E. coli DH5α-T1
The experiment is described as follows: Calorimetric (ITC) titrations with formycin A. Set-up: species or system E. coli. Here is the method:
as §1, §2, §3, §4

The next experiment deals with T3, WT E. coli PNP (Escherichia coli, UniProt P0ABP8).
T3 construct: made in house
T3 sequence (P0ABP8 2-239 limits assumed): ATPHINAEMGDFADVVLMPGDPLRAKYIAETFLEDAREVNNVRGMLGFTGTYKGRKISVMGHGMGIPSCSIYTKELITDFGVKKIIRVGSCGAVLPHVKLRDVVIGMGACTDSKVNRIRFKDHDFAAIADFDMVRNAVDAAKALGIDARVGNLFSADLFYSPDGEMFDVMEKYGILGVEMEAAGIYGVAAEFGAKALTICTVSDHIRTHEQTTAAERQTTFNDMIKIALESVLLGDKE
The experiment is described as follows: Thermophoretic (MST) titrations with phosphate. Conditions: two-binding-site model, 25 °C. Here is the method: Measurements were performed with Monolith NT115 (NanoTemper). Enzyme was labelled with NT647 fluorescent dye (NanoTemper) according to the protocol provided by the manufacturer. Labelled proteins show fluorescence excitation and emission maxima of approximately 650 and 670 nm, respectively. The series of titrations were performed at a constant protein concentration. Both proteins (WT and mutant), and ligands were dissolved in 50 mM Tris/HCl pH 7.6 buffer, measurements were performed at 25 °C. […] In the pre-experiments, it was carefully checked for both proteins, WT and Y160W mutant whether any sign of aggregation or inactivation occurs, and if mutant behaviour is similar to that of the WT enzyme. […]
For experiments of the binary complex formation with phosphate, curves were measured at four different powers of the heating laser. Two to five titrations at each heating power were measured, and curves were averaged for a particular heating power. […] This is an area inaccessible in fluorescence titration due to the quenching of the protein fluorescence at such a high ionic strength of the solution. […]
Titration series were analysed globally, always starting from the simplest, one-binding-site model. […] For all tested models the Akaike information criterion[23] was also calculated. […]

T2 sequence (P0ABP8 2-239 Y161W, one chain of several): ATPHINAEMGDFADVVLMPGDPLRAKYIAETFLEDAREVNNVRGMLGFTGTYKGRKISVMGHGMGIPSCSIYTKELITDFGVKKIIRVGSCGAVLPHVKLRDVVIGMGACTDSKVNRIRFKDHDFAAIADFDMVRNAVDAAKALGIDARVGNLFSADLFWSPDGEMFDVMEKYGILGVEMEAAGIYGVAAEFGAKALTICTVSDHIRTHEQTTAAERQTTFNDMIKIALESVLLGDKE

Regarding `Nc1ncnc2c([C@@H]3O[C@H](CO)[C@@H](O)[C@H]3O)[nH]nc12` [FA, Formycin A], the Kd was 8.9 µM at WT PNP/Pi complex (Kd1 ± SD, three-binding-site model, 50 mM phosphate, pH 7.6, 25 °C, values to be treated as estimates); 812 µM on WT PNP/Pi complex (Kd3 ± SD, three-binding-site model, 50 mM phosphate, pH 7.6, 25 °C, values to be treated as estimates); 55 µM on WT PNP/Pi complex (read-out: Kd2 ± SD, three-binding-site model, 50 mM phosphate, pH 7.6, 25 °C, values to be treated as estimates); 6.75 µM at Y160W mutant/Pi complex (Kd1 ± SD, three-binding-site model, 50 mM phosphate, pH 7.6, 25 °C); 655 µM on Y160W mutant/Pi complex (Kd3 ± SD, three-binding-site model, 50 mM phosphate, pH 7.6, 25 °C); 149 µM at Y160W mutant/Pi complex (read-out: Kd2 ± SD, three-binding-site model, 50 mM phosphate, pH 7.6, 25 °C).

With `O=P(O)(O)O` [Pi, Orthophosphate], the Kd at WT E. coli PNP (50 mM Tris/HCl pH 7.6, read-out: Kd1 ± SD) came out at 7 µM; on WT E. coli PNP (50 mM Tris/HCl pH 7.6, read-out: Kd3 ± SD), 1640 µM.
